Like-named read-outs stand apart in the source and are kept apart here.
Target: T1, Recombinant human cathepsin A (Homo sapiens, UniProt P10619)
T1 construct: Recombinant human cathepsin A (residues 29-480, with a C-terminal 10-His tag); 10-His (C); purchased R&D Systems 1049-SE
T1 sequence (P10619 29-312 limits assumed): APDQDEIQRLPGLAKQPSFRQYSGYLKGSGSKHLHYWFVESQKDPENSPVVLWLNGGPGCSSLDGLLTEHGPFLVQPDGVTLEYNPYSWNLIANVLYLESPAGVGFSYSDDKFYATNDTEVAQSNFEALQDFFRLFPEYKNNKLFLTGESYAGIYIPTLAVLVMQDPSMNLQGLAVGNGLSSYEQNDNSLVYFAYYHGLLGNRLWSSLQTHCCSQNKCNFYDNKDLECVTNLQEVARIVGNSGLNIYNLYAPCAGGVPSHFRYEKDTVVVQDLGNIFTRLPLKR
T1 sequence (P10619 327-480 limits assumed): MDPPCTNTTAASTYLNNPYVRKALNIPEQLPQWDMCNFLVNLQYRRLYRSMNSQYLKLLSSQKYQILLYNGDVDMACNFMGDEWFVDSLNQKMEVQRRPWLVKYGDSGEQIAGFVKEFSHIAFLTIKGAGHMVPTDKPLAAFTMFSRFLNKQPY
Test: Cathepsin A inhibitory activity
Format: biochemical
Procedure: a) Cathepsin A Inhibitory Activity
Recombinant human cathepsin A (residues 29-480, with a C-terminal 10-His tag; R&D Systems, #1049-SE) was proteolytically activated with recombinant human cathepsin L (R&D Systems, #952-CY). Briefly, cathepsin A was incubated at 10 μg/ml with cathepsin L at 1 μg/ml in activation buffer (25 mM 2-(morpholin-4-yl)-ethanesulfonic acid (MES), pH 6.0, containing 5 mM dithiothreitol (DTT)) for 15 min at 37° C. Cathepsin L activity was then stopped by the addition of the cysteine protease inhibitor E-64 (N-(trans-epoxysuccinyl)-L-leucine-4-guanidinobutylamide; Sigma-Aldrich, #E3132; dissolved in activation buffer/DMSO) to a final concentration of 10 μM.
The activated cathepsin A was diluted in assay buffer (25 mM MES, pH 5.5, containing 5 mM DTT) and mixed with the test compound (dissolved in assay buffer containing (v/v) 3% DMSO) or, in the control experiments, with the vehicle in a multiple assay plate. After incubation for 15 min at room temperature, as substrate then bradykinin carrying an N-terminal®Bodipy FL (4,4-difluoro-5,7-dimethyl-4-bora-3a,4a-diaza-s-indacene-3-propionyl) label (JPT Peptide Technologies GmbH; dissolved in assay buffer) was added to the mixture. The final concentration of cathepsin A was 833 ng/ml and the final concentration of labeled bradykinin 2 μM. After incubation for 15 min at room temperature the reaction was stopped by the addition of stop buffer (130 mM 2-(4-(2-hydroxy-ethyl)-piperazin-1-yl)-ethanesulfonic acid, pH 7.4, containing (v/v) 0.013% Triton X-100, 0.13% Coating Reagent 3 (Caliper Life Sciences), 6.5% DMSO and 20 μM ebelactone B (Sigma, # E0886)).
Uncleaved substrate and product were then separated by a microfluidic capillary electrophoresis on a LabChip® 3000 Drug Discovery System (12-Sipper-Chip; Caliper Life Sciences) and quantified by determination of the respective peak areas. Substrate turnover was calculated by dividing product peak area by the sum of substrate and product peak areas, and the enzyme activity and the inhibitory effect of the test compound thus quantified. From the percentage of inhibition of cathepsin A activity observed with the test compound at several concentrations, the inhibitory concentration IC50, i.e. the concentration which effects 50% inhibition of enzyme activity was, calculated.

[1] = read-out: Activity (2): Cathepsin A inhibitory activity, IC50 class
[2] = recombinant human cathepsin A, read-out: Activity (2): Cathepsin A inhibitory activity, IC50 class
[3] = recombinant human cathepsin A 833 ng/ml, Bodipy FL-labeled bradykinin 2 μM, pH 5.5, read-out: CATH-A IC50
[4] = read-out: Activity (2): Cathepsin A inhibitory activity (IC50 class)
[5] = pharmacological test "Cathepsin A inhibitory activity", IC50 given as class A/B/C, read-out: Activity (2): Cathepsin A inhibitory activity, IC50 class

IC50 [1]	IC50 [4]	Compound	also measured
1000 to 30000 nM		Cc1ccc(C)c(-n2nc(C(=O)NC(CC(=O)O)c3ccc(Cl)c(Cl)c3)cc2O)c1 (stereo not drawn) [Example 48]	
		COc1cc(C(=O)N[C@@H](CC(=O)N[C@H](CO)C(C)C)c2ccccc2C)nn1-c1ccccc1F [Example 936, 1-(2-Fluoro-phenyl)-5-methoxy-1H-pyrazole-3-carboxylic acid [(S)-2-((S)-1-hydroxymethyl-2-methyl-propylcarbamoyl)-1-o-tolyl-ethyl]-amide]	IC50 [2]: < 100 nM
		O=C(O)CC(NC(=O)c1cc(O)n(-c2ccccc2Cl)n1)c1cc(F)ccc1C(F)(F)F (stereo not drawn) [Example 460, 3-{[1-(2-Chloro-phenyl)-5-hydroxy-1H-pyrazole-3-carbonyl]-amino}-3-(5-fluoro-2-trifluoromethyl-phenyl)-propionic acid]	IC50 [3]: 118 nM; IC50 [2]: 100 to 1000 nM
	100 to 1000 nM	Cc1ccc(C(CC(=O)O)NC(=O)c2cc(O)n(-c3ccccc3Cl)n2)c(F)c1 (stereo not drawn) [Example 561, 3-{[1-(2-Chloro-phenyl)-5-hydroxy-1H-pyrazole-3-carbonyl]-amino}-3-(2-fluoro-4-methyl-phenyl)-propionic acid]	IC50 [3]: 266 nM
		O=C(O)CC(NC(=O)c1cc(O)n(-c2ccnc(Cl)c2)n1)c1ccc(-c2ccccc2)cc1 (stereo not drawn) [Example 439]	IC50 [2]: 100 to 1000 nM
	1000 to 30000 nM	O=C(O)CC(NC(=O)c1cc(O)n(-c2ccccc2Cl)n1)c1ccc(N2CCCC2)cc1 (stereo not drawn) [Example 568, 3-{[1-(2-Chloro-phenyl)-5-hydroxy-1H-pyrazole-3-carbonyl]-amino}-3-(4-pyrrolidin-1-yl-phenyl)-propionic acid]	IC50 [3]: 2350 nM
		O=C(O)CC(NC(=O)c1cc(O)n(-c2ccccc2Cl)n1)c1cccc(C(F)(F)F)c1Cl (stereo not drawn) [Example 223]	IC50 [5]: 100 to 1000 nM
	< 100 nM	CCOc1cc(C(=O)NC(CC(=O)O)c2ccc(F)cc2C)nn1-c1ccccc1F (stereo not drawn) [Example 718]	
100 to 1000 nM		O=C(O)C[C@H](NC(=O)c1cc(O)n(-c2cccc(F)c2)n1)c1ccccc1Br [Example 302]	
	< 100 nM	Cc1ccccc1[C@H](CC(=O)O)NC(=O)c1cc(OC(=O)N2CCCC2)n(-c2ccccc2F)n1 [Example 613, Pyrrolidine-1-carboxylic acid 5-((S)-2-carboxy-1-o-tolyl-ethylcarbamoyl)-2-(2-fluoro-phenyl)-2H-pyrazol-3-yl ester]	
	100 to 1000 nM	O=C(O)CC(NC(=O)c1cc(O)n(-c2ccccc2Cl)n1)c1ccc(-n2cccn2)cc1 (stereo not drawn) [Example 580]	
		CCc1ccc(C(CC(=O)O)NC(=O)c2cc(O)n(-c3ccc(F)cc3F)n2)cc1 (stereo not drawn) [Example 194]	IC50 [5]: 100 to 1000 nM
	< 100 nM	CCOc1cc(C(=O)N[C@@H](CC(=O)O)c2ccccc2C)nn1-c1ccccc1F [Example 662]	
	< 100 nM	O=C(O)C[C@H](NC(=O)c1cc(OCC2CC2)n(-c2ccccc2F)n1)c1ccc(C(F)(F)F)cc1 [Example 694]	
		O=C(O)CC(NC(=O)c1cc(O)n(-c2ccc(F)cc2F)n1)c1ccc(-c2ccccn2)cc1 (stereo not drawn) [Example 501]	IC50 [2]: < 100 nM
		CC(C)[C@@](C)(O)COc1cc(C(=O)N[C@@H](CC(=O)O)c2ccccc2Cl)nn1-c1ccccc1F [Example 861, (S)-3-(2-Chloro-phenyl)-3-{[1-(2-fluoro-phenyl)-5-((R)-2-hydroxy-2,3-dimethyl-butoxy)-1H-pyrazole-3-carbonyl]-amino}-propionic acid]	IC50 (number printed in place of a class symbol, unit from footnote (2), read-out: Activity (2): Cathepsin A inhibitory activity, IC50 printed as a numeric bound): > 30000 nM
100 to 1000 nM		Cc1ccc(C(CC(=O)O)NC(=O)c2cc(O)n(-c3ccc(Cl)cc3)n2)c(C)c1 (stereo not drawn) [Example 291]	

IC50 [1]	IC50 [4]	Compound	also measured
	< 100 nM	CCOc1cc(C(=O)NC(CC(=O)O)c2cccc(F)c2C)nn1-c1ccccc1Cl (stereo not drawn) [Example 725]	
1000 to 30000 nM		Cc1cccc(C(CC(=O)O)NC(=O)c2cc(O)n(-c3cc(C)ccc3C)n2)c1 (stereo not drawn) [Example 51]	
1000 to 30000 nM		O=C(O)CC(NC(=O)c1cc(O)n(-c2ccc(Cl)cc2)n1)c1cccc(Oc2ccc(Cl)cc2)c1 (stereo not drawn) [Example 290]	
	< 100 nM	Cc1ccccc1[C@H](CC(=O)O)NC(=O)c1cc(OC(C)C)n(-c2ccccc2F)n1 [Example 630]	
	1000 to 30000 nM	O=C(O)CC(NC(=O)c1cc(O)n(-c2ccccc2F)n1)c1ccc(N2CCCC2)cc1 (stereo not drawn) [Example 566, 3-{[1-(2-Fluoro-phenyl)-5-hydroxy-1H-pyrazole-3-carbonyl]-amino}-3-(4-pyrrolidin-1-yl-phenyl)-propionic acid]	IC50 [3]: 2990 nM
100 to 1000 nM		COc1cccc([C@H](CC(=O)O)NC(=O)c2cc(O)n(-c3ccccc3Cl)n2)c1OC [Example 394]	
100 to 1000 nM		CC(C)CC(CC(=O)O)NC(=O)c1cc(O)n(-c2ccccc2)n1 (stereo not drawn) [Example 19]	
	< 100 nM	CCOc1cc(C(=O)NC(CC(=O)O)c2cccc(C)c2C)nn1-c1ccccc1Cl (stereo not drawn) [Example 743]	
	< 100 nM	Cc1ccccc1[C@H](CC(=O)O)NC(=O)c1cc(OC2CCC2)n(-c2ccccc2F)n1 [Example 648]	
100 to 1000 nM		O=C(O)CC(NC(=O)c1cc(O)n(-c2ccccc2)n1)c1ccc(OC(F)(F)F)cc1 (stereo not drawn) [Example 12]	
1000 to 30000 nM		CC(C)(C)Oc1ccc(C(CC(=O)O)NC(=O)c2cc(O)n(-c3ccccc3)n2)cc1 (stereo not drawn) [Example 23]	
	< 100 nM	CCOc1cc(C(=O)N[C@@H](CC(=O)O)c2ccccc2F)nn1-c1ccccc1F [Example 720]	
	< 100 nM	Cc1ccccc1[C@H](CC(=O)O)NC(=O)c1cc(OCCN2CCCC2=O)n(-c2ccccc2F)n1 [Example 639]	
		COc1ccccc1[C@@H](NC(=O)c1cc(O)n(-c2ccccc2Cl)n1)[C@@H](O)C(=O)O [Example 216]	IC50 [5]: 1000 to 30000 nM
		O=C(O)C[C@H](NC(=O)c1cc(O)n(-c2ccccc2F)n1)c1cccnc1 [Example 140]	IC50 [5]: 100 to 1000 nM
		O=C(O)CC(NC(=O)c1cc(O)n(-c2cccc(F)c2)n1)c1cc(F)ccc1C(F)(F)F (stereo not drawn) [Example 486]	IC50 [2]: 100 to 1000 nM

Compound	IC50 [1]	IC50 [4]	also measured
CC(C)(C)[C@@](C)(O)COc1cc(C(=O)N[C@@H](CC(=O)O)c2cccc(Cl)c2)nn1-c1ccccc1F [Example 774, (S)-3-(3-Chloro-phenyl)-3-{[1-(2-fluoro-phenyl)-5-((R)-2-hydroxy-2,3,3-trimethyl-butoxy)-1H-pyrazole-3-carbonyl]-amino}-propionic acid]		< 100 nM	
CC(C)[C@](C)(O)COc1cc(C(=O)N[C@@H](CC(=O)O)c2ccccc2C(F)(F)F)nn1-c1ccccc1F [Example 784, (S)-3-{[1-(2-Fluoro-phenyl)-5-((S)-2-hydroxy-2,3-dimethyl-butoxy)-1H-pyrazole-3-carbonyl]-amino}-3-(2-trifluoromethyl-phenyl)-propionic acid]		< 100 nM	
COc1ccccc1[C@H](CC(=O)O)NC(=O)c1cc(OC[C@](C)(O)C(C)C)n(-c2ccccc2F)n1 [Example 822, (S)-3-{[1-(2-Fluoro-phenyl)-5-((R)-2-hydroxy-2,3-dimethyl-butoxy)-1H-pyrazole-3-carbonyl]-amino}-3-(2-methoxy-phenyl)-propionic acid]	< 100 nM		
CC(C)(C)[C@](C)(O)COc1cc(C(=O)N[C@@H](CC(=O)O)c2ccccc2C(F)(F)F)nn1-c1ccccc1F [Example 799, (S)-3-{[1-(2-Fluoro-phenyl)-5-((S)-2-hydroxy-2,3,3-trimethyl-butoxy)-1H-pyrazole-3-carbonyl]-amino}-3-(2-trifluoromethyl-phenyl)-propionic acid]	< 100 nM		
CC(C)(C)[C@](C)(O)COc1cc(C(=O)NC(CC(=O)O)Cc2ccccc2)nn1-c1ccccc1F (stereo partly drawn) [Example 818, 3-{[1-(2-Fluoro-phenyl)-5-((S)-2-hydroxy-2,3,3-trimethyl-butoxy)-1H-pyrazole-3-carbonyl]-amino}-4-phenyl-butyric acid]	< 100 nM		
